Assay results: patent publication US20240150377A1, “MODULATORS OF CYSTIC FIBROSIS TRANSMEMBRANE CONDUCTANCE REGULATOR” (VERTEX PHARMACEUTICALS INCORPORATED, priority 2020, published 2024)
Blank lines part the entries; values can stand above or below the molecule they belong to.

Legend:
Format in all cases: cell-based
[1] = molecular target: T1, F508del (Homo sapiens, UniProt P13569, DEL508-508); experiment: 3T3 assay: membrane potential optical assay for F508del correction; settings: Table 7, F508del NIH 3T3 cells; for Emax: NIH3T3, compared to lumacaftor in combination with acutely added 300 nM Ivacaftor, read-out: 3T3 Max Activity; for EC50: 18-24 hours at 37° C., forskolin, acutely added 300 nM Ivacaftor
T1 construct: expressed in transfected cells
Text: 1. Membrane Potential Optical Methods for Assaying F508del Modulation Properties of Compounds
The assay utilizes fluorescent voltage sensing dyes to measure changes in membrane potential using a fluorescent plate reader (e.g., FLIPR III, Molecular Devices, Inc.) as a readout for increase in functional F508del in NIH 3T3 cells. The driving force for the response is the creation of a chloride ion gradient in conjunction with channel activation by a single liquid addition step after the cells have previously been treated with compounds and subsequently loaded with a voltage sensing dye.
2. Identification of Corrector Compounds
To identify correctors of F508del, a single-addition HTS assay format was developed. This HTS assay utilizes fluorescent voltage sensing dyes to measure changes in membrane potential on the FLIPR III as a measurement for increase in gating (conductance) of F508del in F508del NIH 3T3 cells. The F508del NIH 3T3 cell cultures were incubated with the corrector compounds at a range of concentrations for 18-24 hours at 37° C., and subsequently loaded with a redistribution dye. The driving force for the response is a Cl^− ion gradient in conjunction with channel activation with forskolin in a single liquid addition step using a fluorescent plate reader such as FLIPR III.
Bath Solution #1: (in mM) NaCl 160, KCl 4.5, CaCl2) 2, MgCl2 1, HEPES 10, pH 7.4 with NaOH.
Chloride-free bath solution: Chloride salts in Bath Solution #1 (above) are substituted with gluconate salts.
NIH3T3 mouse fibroblasts stably expressing F508del are used for optical measurements of membrane potential. The cells are maintained at 37° C. in 5% CO2 and 90% humidity in Dulbecco's modified Eagle's medium supplemented with 2 mM glutamine, 10% fetal bovine serum, 1× NEAA, b-ME, 1×pen/strep, and 25 mM HEPES in 175 cm^2 culture flasks. For all optical assays, the cells were seeded at ˜20,000/well in 384-well Matrigel-coated plates. For the correction assays, the cells are cultured at 37° C. with and without compounds for 16-24 hours.

[2] = molecular target: T2, CFTR (Homo sapiens, UniProt P13569); experiment: Membrane potential dye, Enteroid Assay A; settings: for Ent. A Max Activity: chloride transport as % of triple combination control (Enteroid Assay A); for EC50: read-out: Ent. A EC50
Outline: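 Human intestinal enteroids incubated 18-24 h at 37 °C with test compound, then loaded with 20 μM methyl oxonol (with CaCC inhibitors). Chloride transport triggered in chloride-free buffer with 10 μM forskolin, 100 μM IBMX, 300 nM Compound III; fluorescence read 15 min, expressed as % of a triple-combination corrector/potentiator control.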

[3] = molecular target: T2, CFTR; experiment: Membrane potential dye, Enteroid Assay B; settings: for Ent. B Max Activity: chloride transport as % of triple combination control (Enteroid Assay B); for EC50: read-out: Ent. B EC50
Outline: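 Human intestinal enteroids were treated with compound in maintenance medium for 18-24 h at 37° C, then loaded with methyl oxonol membrane-potential dye (25 min, room temperature). Chloride transport was triggered in chloride-free buffer with 10 μM forskolin, 100 μM IBMX and 300 nM Compound III, fluorescence read 15 min; expressed as % of triple-combination control.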

[4] = Table 7, human enteroid cells, 18-24 hours, acute 10 μM forskolin and 300 nM ivacaftor
[5] = Table 6, human enteroid cells, 18-24 hours, acute 10 μM forskolin and 300 nM ivacaftor
[6] = Table 8, human enteroid cells, 18-24 hours, acute 10 μM forskolin and 300 nM ivacaftor

T2 sequence (P13569 with tags, fused parts or gaps DEL508-508): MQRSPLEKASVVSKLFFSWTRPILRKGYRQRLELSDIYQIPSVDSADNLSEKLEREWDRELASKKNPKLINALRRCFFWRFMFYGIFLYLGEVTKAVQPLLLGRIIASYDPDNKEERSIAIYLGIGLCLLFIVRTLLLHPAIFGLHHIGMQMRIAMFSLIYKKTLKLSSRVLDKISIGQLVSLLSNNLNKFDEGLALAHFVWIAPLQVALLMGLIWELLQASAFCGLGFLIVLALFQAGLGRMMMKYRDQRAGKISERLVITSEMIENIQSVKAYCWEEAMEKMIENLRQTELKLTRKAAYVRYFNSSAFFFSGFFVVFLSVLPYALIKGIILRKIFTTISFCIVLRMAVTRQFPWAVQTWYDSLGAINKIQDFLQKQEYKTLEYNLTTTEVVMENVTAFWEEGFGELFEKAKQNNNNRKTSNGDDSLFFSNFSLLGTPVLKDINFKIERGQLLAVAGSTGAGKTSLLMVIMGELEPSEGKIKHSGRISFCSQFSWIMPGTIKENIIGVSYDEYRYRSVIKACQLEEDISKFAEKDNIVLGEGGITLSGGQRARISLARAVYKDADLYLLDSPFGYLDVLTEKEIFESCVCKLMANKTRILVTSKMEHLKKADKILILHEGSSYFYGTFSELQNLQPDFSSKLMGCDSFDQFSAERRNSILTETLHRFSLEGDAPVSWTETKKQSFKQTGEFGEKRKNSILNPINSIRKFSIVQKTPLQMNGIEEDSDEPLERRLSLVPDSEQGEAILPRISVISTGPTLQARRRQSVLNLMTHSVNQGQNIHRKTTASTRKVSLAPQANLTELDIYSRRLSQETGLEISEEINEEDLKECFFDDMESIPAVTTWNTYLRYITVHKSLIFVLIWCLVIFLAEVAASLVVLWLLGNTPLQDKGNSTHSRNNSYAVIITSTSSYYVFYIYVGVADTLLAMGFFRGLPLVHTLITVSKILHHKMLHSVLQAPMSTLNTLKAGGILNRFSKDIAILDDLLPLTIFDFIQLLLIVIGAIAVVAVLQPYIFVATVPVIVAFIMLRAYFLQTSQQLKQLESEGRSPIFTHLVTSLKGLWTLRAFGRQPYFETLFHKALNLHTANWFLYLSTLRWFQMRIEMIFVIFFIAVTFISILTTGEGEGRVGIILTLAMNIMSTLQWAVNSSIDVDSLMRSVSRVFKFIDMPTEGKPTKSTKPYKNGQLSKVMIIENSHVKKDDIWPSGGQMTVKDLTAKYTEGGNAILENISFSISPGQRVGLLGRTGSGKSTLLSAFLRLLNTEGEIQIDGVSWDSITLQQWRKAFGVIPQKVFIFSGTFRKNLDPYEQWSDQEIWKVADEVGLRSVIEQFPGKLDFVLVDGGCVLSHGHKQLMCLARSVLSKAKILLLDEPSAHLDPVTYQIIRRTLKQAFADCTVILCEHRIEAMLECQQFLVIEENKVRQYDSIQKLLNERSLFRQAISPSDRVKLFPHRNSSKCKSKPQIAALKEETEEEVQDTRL
T1 sequence (P13569 with tags, fused parts or gaps DEL508-508): as above

SMILES: Cc1cccc(C)c1-c1cc2nc(n1)NS(=O)(=O)c1cccc(c1)C(=O)N(Cc1ccncc1)[C@H](CC(C)C)CO2 [Compound 1106]
Ent. B Max Activity ([3]; Table 7): ++ (++ is 30-60%)
EC50 [3, 4]: 1 to 3 µM
Ent. A Max Activity ([2]; Table 7): +++ (+++ is >60%)
EC50 [2, 4]: 1 to 3 µM

SMILES: Cc1cccc(C)c1-c1cc2nc(n1)NS(=O)(=O)c1cccc(c1)C(=O)N(CCC(C)(C)C)C(C(F)(F)F)CO2 (stereo not shown) [Compound 373]
Emax [1]: > 60%
EC50 [1]: 1 to 3 µM

SMILES: Cc1cccc(C)c1-c1cc2nc(n1)NS(=O)(=O)c1cccc(c1)C(=O)N(C)C[C@@H](c1ccc(C3CC3)cc1)O2 [Compound 668]
Emax [1]: > 60%
EC50 [1]: < 1 µM

SMILES: Cc1cccc(C)c1-c1cc2nc(n1)NS(=O)(=O)c1cccc(c1)C(=O)N(CCN(C)C)[C@H](CC(C)C)CO2 [Compound 412]
Ent. B Max Activity ([3]; Table 7): +++ (+++ is >60%)
EC50 [3, 4]: < 1 µM

SMILES: Cc1cccc(C)c1-c1cc2nc(n1)NS(=O)(=O)c1cccc(n1)C(=O)N(CCCCC(C)(C)O)[C@H](CC(C)(C)C)CO2 [Compound 76, (11R)-6-(2,6-Dimethylphenyl)-11-(2,2-dimethylpropyl)-12-(5-hydroxy-5-methylhexyl)-9-oxa-2λ^6-thia-3,5,12,18,19-pentaazatricyclo[12.3.1.14,8]nonadeca-1(18),4(19),5,7,14,16-hexaene-2,2,13-trione]
Ent. B Max Activity ([3]; Table 8): +++ (+++ is >60%)
EC50 [3, 6]: < 1 µM

SMILES: Cc1cccc(C)c1-c1cc2nc(n1)NS(=O)(=O)c1cccc(c1)C(=O)N(CCCS(C)(=O)=O)[C@H](CC(C)C)CO2 [Compound 389]
Ent. B Max Activity (%) ([3]; Table 9): +++ (+++ is >600%)
EC50 ([3]; Table 9): < 1 µM

SMILES: Cc1cccc(C)c1-c1cc2nc(n1)NS(=O)(=O)c1cccc(c1)C(=O)N(Cc1ccc(CC(=O)N(C)C)cc1)[C@H](CC(C)(C)C)CO2 [Compound 845]
Ent. B Max Activity (%) ([3]; Table 9): +++ (+++ is >600%)
EC50 ([3]; Table 9): < 1 µM

SMILES: Cc1cccc(C)c1-c1cc2nc(n1)NS(=O)(=O)c1cccc(c1)C(=O)N(Cc1ccn3nccc3c1)[C@H](CC(C)(C)C)CO2 [Compound 791]
Ent. B Max Activity (%) ([3]; Table 9): +++ (+++ is >600%)
EC50 ([3]; Table 9): < 1 µM

SMILES: Cc1cccc(C)c1-c1cc2nc(n1)NS(=O)(=O)c1cccc(c1)C(=O)N(Cc1ccccc1)[C@H](CC(C)(C)C)CO2 [Compound 1087]
Ent. B Max Activity ([3]; Table 8): +++ (+++ is >60%)
EC50 [3, 6]: < 1 µM

SMILES: C=C(C)c1cnc(CN2C(=O)c3cccc(c3)S(=O)(=O)Nc3nc(cc(-c4c(C)cccc4C)n3)OC[C@H]2CC(C)(C)C)nc1 [Compound 1078]
Ent. B Max Activity (%) ([3]; Table 9): +++ (+++ is >600%)
EC50 ([3]; Table 9): < 1 µM

SMILES: Cc1cccc(C)c1-c1cc2nc(n1)NS(=O)(=O)c1cccc(c1)C(=O)N(CC13CC(C(C)(C)O)(C1)C3)[C@H](CC(C)(C)C)CO2 [Compound 69, (11R)-6-(2,6-Dimethylphenyl)-11-(2,2-dimethylpropyl)-12-[[3-(1-hydroxy-1-methyl-ethyl)-1-bicyclo[1.1.1]pentanyl]methyl]-2,2-dioxo-9-oxa-2λ^6-thia-3,5,12,19-tetrazatricyclo[12.3.1.14,8]nonadeca-1(18),4(19),5,7,14,16-hexaen-13-one]
Ent. B Max Activity (%) ([3]; Table 9): +++ (+++ is >600%)
EC50 ([3]; Table 9): < 1 µM

SMILES: Cc1cccc(C)c1-c1cc2nc(n1)NS(=O)(=O)c1cccc(c1)C(=O)N(CCCCC(C)(C)O)[C@H](CC(C)(C)C)CO2 [Compound 107, (11R)-6-(2,6-Dimethylphenyl)-11-(2,2-dimethylpropyl)-12-(5-hydroxy-5-methyl-hexyl)-2,2-dioxo-9-oxa-2λ^6-thia-3,5,12,19-tetrazatricyclo[12.3.1.14,8]nonadeca-1(18),4(19),5,7,14,16-hexaen-13-one]
Ent. B Max Activity ([3]; Table 8): +++ (+++ is >60%)
EC50 [3, 6]: < 1 µM

SMILES: Cc1cccc(C)c1-c1cc2nc(n1)NS(=O)(=O)c1cc(nn1C)C(=O)N(Cc1cccnc1)[C@H](CC(C)(C)C)CO2 [Compound 933]
Ent. B Max Activity ([3]; Table 8): + (+ is <30%)

SMILES: Cc1cccc(C)c1-c1cc2nc(n1)NS(=O)(=O)c1cccc(c1)C(=O)N(Cc1ccc(NC(=O)OC(C)C)nc1)[C@H](CC(C)(C)C)CO2 [Compound 401]
Ent. B Max Activity ([3]; Table 8): +++ (+++ is >60%)
EC50 [3, 6]: < 1 µM

SMILES: Cc1cccc(C)c1-c1cc2nc(n1)NS(=O)(=O)c1cccc(c1)C(=O)N(CCN(C)C(=O)OC(C)C)[C@H](CC(C)C)CO2 [Compound 91, Isopropyl N-[2-[(11R)-6-(2,6-dimethylphenyl)-11-isobutyl-2,2,13-trioxo-9-oxa-2λ^6-thia-3,5,12,19-tetrazatricyclo[12.3.1.14,8]nonadeca-1(18),4(19),5,7,14,16-hexaen-12-yl]ethyl]-N-methyl-carbamate]
Ent. B Max Activity ([3]; Table 7): +++ (+++ is >60%)
EC50 [3, 4]: < 1 µM

Continued, values first:

Emax [1]: > 60%
EC50 [1]: < 1 µM
Ent. A Max Activity ([2]; Table 7): +++ (+++ is >60%)
EC50 [2, 4]: < 1 µM
SMILES: Cc1cccc(C)c1-c1cc2nc(n1)NS(=O)(=O)c1cccc(c1)C(=O)N(Cc1ccc(N3CCCCC3)nc1)[C@H](CC(C)C)CO2 [Compound 974]

Ent. B Max Activity ([3]; Table 6): +++ (+++ is >60%)
EC50 [3, 5]: < 1 µM
Ent. A Max Activity ([2]; Table 6): +++ (+++ is >60%)
EC50 [2, 5]: < 1 µM
SMILES: COCCN1C(=O)c2cccc(c2)S(=O)(=O)Nc2nc(cc(-c3c(C)cccc3C)n2)OC[C@H]1CC(C)C [Compound 363]

Ent. B Max Activity ([3]; Table 6): +++ (+++ is >60%)
EC50 [3, 5]: < 1 µM
Ent. A Max Activity ([2]; Table 6): +++ (+++ is >60%)
EC50 [2, 5]: < 1 µM
SMILES: Cc1cccc(C)c1-c1cc2nc(n1)NS(=O)(=O)c1cccc(c1)C(=O)N(Cc1ncccn1)[C@H](CC(C)C)CO2 [Compound 77, (11R)-6-(2,6-Dimethylphenyl)-11-isobutyl-2,2-dioxo-12-(pyrimidin-2-ylmethyl)-9-oxa-2λ^6-thia-3,5,12,19-tetrazatricyclo[12.3.1.14,8]nonadeca-1(18),4(19),5,7,14,16-hexaen-13-one]

Ent. B Max Activity (%) ([3]; Table 9): ++ (++ is 30-60%)
EC50 ([3]; Table 9): < 1 µM
Ent. A Max Activity (%) ([2]; Table 9): +++ (+++ is >600%)
EC50 ([2]; Table 9): < 1 µM
SMILES: CCN1C(=O)c2cccc(c2)S(=O)(=O)Nc2nc(cc(-c3c(C)cccc3C)n2)O[C@@H]2CN(C3CC4(CCCC4)C3)C[C@H]21 [Compound 1192, (3R,7R)-19-(2,6-Dimethylphenyl)-8-ethyl-5-{spiro[3.4]octan-2-yl}-2-oxa-15λ^6-thia-5,8,16,18,21-pentaazatetracyclo[15.3.1.110,14.03,7]docosa-1(20),10(22),11,13,17(21),18-hexaene-9,15,15-trione]

Ent. B Max Activity ([3]; Table 8): +++ (+++ is >60%)
EC50 [3, 6]: < 1 µM
SMILES: Cc1cccc(C)c1-c1cc2nc(n1)NS(=O)(=O)c1cccc(c1)CN(CCCCO)[C@H](CC(C)C)CO2 [Compound 46, 4-[(11R)-6-(2,6-Dimethylphenyl)-11-isobutyl-2,2-dioxo-9-oxa-2λ^6-thia-3,5,12,19-tetrazatricyclo[12.3.1.14,8]nonadeca-1(18),4(19),5,7,14,16-hexaen-12-yl]butan-1-ol]

Ent. B Max Activity ([3]; Table 8): +++ (+++ is >60%)
EC50 [3, 6]: < 1 µM
SMILES: Cc1cccc(C)c1-c1cc2nc(n1)NS(=O)(=O)c1cccc(c1)C(=O)N(Cc1cc(C(C)(C)O)n(C)n1)[C@H](CC(C)(C)C)CO2 [Compound 849]

Ent. B Max Activity ([3]; Table 8): +++ (+++ is >60%)
EC50 [3, 6]: < 1 µM
SMILES: Cc1cccc(C)c1-c1cc2nc(n1)NS(=O)(=O)c1cccc(c1)C(=O)N(Cc1cccc(CN(C)C)c1)[C@H](CC(C)C)CO2 [Compound 1102]

Ent. B Max Activity ([3]; Table 8): +++ (+++ is >60%)
EC50 [3, 6]: < 1 µM
SMILES: COc1cnc(CN2C(=O)c3cccc(c3)S(=O)(=O)Nc3nc(cc(-c4c(C)cccc4C)n3)OC[C@H]2CC(C)(C)C)cn1 [Compound 1099]
